Results from patent US10669276B2, “Fused pyrimidine derivatives” (Hoffmann-La Roche Inc., priority 2016, dated 2020).

Biological target: γ-secretase (Homo sapiens (Human), UniProt P49768)
Experiment: Cellular γ-secretase assay (Aβ42 secretion, AlphaLisa)
Assay type: cell-based
Details: inhibition of Aβ42 secretion; human neuroglioma H4 cells overexpressing human APP695 Swedish double mutation; 24 hr compound incubation
Description: Human neuroglioma H4 cells overexpressing human APP695 with the Swedish double mutation (K595N/M596L) were plated at 30,000 cells/well/100 μl in 96-well plates in IMDM media containing 10% FCS, 0.2 mg/l Hygromycin B and incubated at 37° C., 5% CO2.
3-4 hr post plating, compounds are a diluted in media and 50 μl is added as […] concentrate to achieve the final concentration. Compound incubation is performed for 24 hr. Final doses typically range from 4 μM down to 0.0013 μM in half-log steps resulting in an eight point dose response curve. Appropriate controls using vehicle only and reference compound were applied to this assay. The final concentration of Me2SO was 0.4%.
After incubation at 37° C., 5% CO2, the supernatant was subjected to quantification of secreted Aβ42 by the means of an AlphaLisa assay kit (Human Amyloid beta 1-42 Kit: Cat # AL203C, Perkin Elmer). 20 μl of the cell culture supernatant was transferred to an assay plate. Then 10 μl of a mixture of the AlphaLisa coupled capture antibody and the biotinylated detection antibody was added and incubated for 3 hours at room temperature while softly shaking the assay plate. After a further addition of 20 μl of the Donor beads the assay plate was incubated for 30 min at room temperature and constant shaking without exposure to direct light. The assay plate was then read on a Paradigm AlphaLisa Reader using the build-in program with excitation at 680 nm and emission at […]. The measured signals were then used to calculate IC50 values for inhibition of Aβ42 secretion by nonlinear regression fit analysis using XLfit 5.3 software (IDBS).

EC50	Structure (SMILES)
0.005 µM	CNc1nc(Nc2ccc(-n3cnc(C)c3)c(F)c2)nc2c1[C@H](C)CN2c1ccc(F)cc1 (single isomer, unassigned) [Example 46p, (S)- or (R)—N2-(3-Fluoro-4-(4-methyl-1H-imidazol-1-yl)phenyl)-7-(4-fluorophenyl)-N4,5-dimethyl-6,7-dihydro-5H-pyrrolo[2,3-d]pyrimidine-2,4-diamine]
0.007 µM	CNc1nc(Nc2ccc(-n3cnc(C)c3)c(F)c2)nc2c1[C@@H](C)CN2c1ccc(F)cc1 (single isomer, unassigned) [Example 46q, (R)— or (S)—N2-(3-Fluoro-4-(4-methyl-1H-imidazol-1-yl)phenyl)-7-(4-fluorophenyl)-N4,5-dimethyl-6,7-dihydro-5H-pyrrolo[2,3-d]pyrimidine-2,4-diamine]
0.005 µM	CNc1nc(Nc2ccc(-n3cnc(C)n3)c(OC)c2)nc2c1C(C)(C)CN2c1ccc(F)cc1 [Example 1, 7-(4-Fluorophenyl)-N2-(3-methoxy-4-(3-methyl-1H-1,2,4-triazol-1-yl)phenyl)-N4,5,5-trimethyl-6,7-dihydro-5H-pyrrolo[2,3-d]pyrimidine-2,4-diamine]
0.008 µM	CNc1nc(Nc2ccc(-n3cnc(C)n3)c(OC(F)F)c2)nc2c1C(C)(C)CN2c1ccc(F)cc1 [Example 2, N2-(3-(Difluoromethoxy)-4-(3-methyl-1H-1,2,4-triazol-1-yl)phenyl)-7-(4-fluorophenyl)-N4,5,5-trimethyl-6,7-dihydro-5H-pyrrolo[2,3-d]pyrimidine-2,4-diamine]
0.016 µM	CNc1nc(Nc2ccc(-n3cnc(C)n3)c(F)c2)nc2c1C(C)(C)CN2c1ccc(F)cc1 [Example 3, N2-(3-Fluoro-4-(3-methyl-1H-1,2,4-triazol-1-yl)phenyl)-7-(4-fluorophenyl)-N4,5,5-trimethyl-6,7-dihydro-5H-pyrrolo[2,3-d]pyrimidine-2,4-diamine]
0.007 µM	CNc1nc(Nc2ccc(-n3cnc(Cl)c3)c(OC)c2)nc2c1C(C)(C)CN2c1ccc(F)cc1 [Example 4, N2-(4-(4-Chloro-1H-imidazol-1-yl)-3-methoxyphenyl)-7-(4-fluorophenyl)-N4,5,5-trimethyl-6,7-dihydro-5H-pyrrolo[2,3-d]pyrimidine-2,4-diamine]
0.022 µM	CNc1nc(Nc2ccc(-n3ncnc3C)c(F)c2)nc2c1C(C)(C)CN2c1ccc(F)cc1 [Example 5, N2-(3-Fluoro-4-(5-methyl-1H-1,2,4-triazol-1-yl)phenyl)-7-(4-fluorophenyl)-N4,5,5-trimethyl-6,7-dihydro-5H-pyrrolo[2,3-d]pyrimidine-2,4-diamine]
0.009 µM	CNc1nc(Nc2cnc(-n3cnc(Cl)c3)c(OC)c2)nc2c1C(C)(C)CN2c1ccc(F)cc1 [Example 6, N2-(6-(4-Chloro-1H-imidazol-1-yl)-5-methoxypyridin-3-yl)-7-(4-fluorophenyl)-N4,5,5-trimethyl-6,7-dihydro-5H-pyrrolo[2,3-d]pyrimidine-2,4-diamine]
0.005 µM	CNc1nc(Nc2cnc(-n3cnc(C)c3)c(OC)c2)nc2c1C(C)(C)CN2c1ccc(F)cc1 [Example 7, 7-(4-Fluorophenyl)-N2-(5-methoxy-6-(4-methyl-1H-imidazol-1-yl)pyridin-3-yl)-N4,5,5-trimethyl-6,7-dihydro-5H-pyrrolo[2,3-d]pyrimidine-2,4-diamine]
0.005 µM	CNc1nc(Nc2ccc(-n3cnc(C)n3)c(OC)c2)nc2c1C(C)(C)CN2c1ccc(F)c(F)c1 [Example 8, 7-(3,4-Difluorophenyl)-N2-(3-methoxy-4-(3-methyl-1H-1,2,4-triazol-1-yl)phenyl)-N4,5,5-trimethyl-6,7-dihydro-5H-pyrrolo[2,3-d]pyrimidine-2,4-diamine]
0.026 µM	CNc1nc(Nc2ccc(-n3cnc(C)n3)c(F)c2)nc2c1C(C)(C)CN2c1ccc(F)c(F)c1 [Example 9, 7-(3,4-Difluorophenyl)-N2-(3-fluoro-4-(3-methyl-1H-1,2,4-triazol-1-yl)phenyl)-N4,5,5-trimethyl-6,7-dihydro-5H-pyrrolo[2,3-d]pyrimidine-2,4-diamine]
0.051 µM	CNc1nc(Nc2ccc(-n3cnc(C)n3)cc2)nc2c1C(C)(C)CN2c1ccc(F)cc1 [Example 10, 7-(4-Fluorophenyl)-N4,5,5-trimethyl-N2-(4-(3-methyl-1H-1,2,4-triazol-1-yl)phenyl)-6,7-dihydro-5H-pyrrolo[2,3-d]pyrimidine-2,4-diamine]
0.033 µM	CNc1nc(Nc2ccc(-n3cc(C)nc3C)c(F)c2)nc2c1C(C)(C)CN2c1ccc(F)cc1 [Example 11, N2-(4-(2,4-Dimethyl-1H-imidazol-1-yl)-3-fluorophenyl)-7-(4-fluorophenyl)-N4,5,5-trimethyl-6,7-dihydro-5H-pyrrolo[2,3-d]pyrimidine-2,4-diamine]
0.013 µM	CNc1nc(Nc2ccc(-n3cnc(C)c3)cc2)nc2c1C(C)(C)CN2c1ccc(F)cc1 [Example 12, 7-(4-Fluorophenyl)-N4,5,5-trimethyl-N2-(4-(4-methyl-1H-imidazol-1-yl)phenyl)-6,7-dihydro-5H-pyrrolo[2,3-d]pyrimidine-2,4-diamine]
0.023 µM	CNc1nc(Nc2ccc(-n3cnc(C)n3)nc2)nc2c1C(C)(C)CN2c1ccc(F)cc1 [Example 13, 7-(4-Fluorophenyl)-N4,5,5-trimethyl-N2-(6-(3-methyl-1H-1,2,4-triazol-1-yl)pyridin-3-yl)-6,7-dihydro-5H-pyrrolo[2,3-d]pyrimidine-2,4-diamine]
0.01 µM	CNc1nc(Nc2cnc(-n3cnc(Cl)c3)c(OC)c2)nc2c1C(C)(C)CN2c1ccc(F)c(F)c1 [Example 14, N2-(6-(4-Chloro-1H-imidazol-1-yl)-5-methoxypyridin-3-yl)-7-(3,4-difluorophenyl)-N4,5,5-trimethyl-6,7-dihydro-5H-pyrrolo[2,3-d]pyrimidine-2,4-diamine]
0.008 µM	CNc1nc(Nc2cnc(-n3cnc(C)c3)c(OC)c2)nc2c1C(C)(C)CN2c1ccc(F)c(F)c1 [Example 15, 7-(3,4-Difluorophenyl)-N2-(5-methoxy-6-(4-methyl-1H-imidazol-1-yl)pyridin-3-yl)-N4,5,5-trimethyl-6,7-dihydro-5H-pyrrolo[2,3-d]pyrimidine-2,4-diamine]
0.03 µM	CNc1nc(Nc2ccc(-c3cnc(C)o3)c(F)c2)nc2c1C(C)(C)CN2c1ccc(F)cc1 [Example 16, N2-(3-Fluoro-4-(2-methyloxazol-5-yl)phenyl)-7-(4-fluorophenyl)-N4,5,5-trimethyl-6,7-dihydro-5H-pyrrolo[2,3-d]pyrimidine-2,4-diamine]
0.019 µM	CNc1nc(Nc2ccc(-n3cnc(C)n3)c(OC)c2)nc2c1C(C)(C)CN2C1CC(F)(F)C1 [Example 17, 7-(3,3-Difluorocyclobutyl)-N2-(3-methoxy-4-(3-methyl-1H-1,2,4-triazol-1-yl)phenyl)-N4,5,5-trimethyl-6,7-dihydro-5H-pyrrolo[2,3-d]pyrimidine-2,4-diamine]
0.014 µM	CNc1nc(Nc2cnc(-n3cnc(C)c3)c(OC)c2)nc2c1C(C)(C)CN2C1CC(F)(F)C1 [Example 18, 7-(3,3-Difluorocyclobutyl)-N2-(5-methoxy-6-(4-methyl-1H-imidazol-1-yl)pyridin-3-yl)-N4,5,5-trimethyl-6,7-dihydro-5H-pyrrolo[2,3-d]pyrimidine-2,4-diamine]
